Test results as given in US20120100189A1 (Teva Pharmaceutical Industries Ltd., priority 2009, published 2012).

Conditions: non-polar organic solvents such as hexane toluene and ethylacetate

solubility in non-polar organic solvents: very soluble
SMILES: C#CCN[C@@H]1CCc2ccccc21 [Rasagiline base]
